Measured values: ChEMBL document CHEMBL1136423, “Phosphate ester serum albumin affinity tags greatly improve peptide half-life in vivo” (Bioorg Med Chem Lett, 2003)
Where a SMILES comes first, the peptide text is derived from it. Bridges are numbered along the chain shown (N, C = ends). The star is where a group is joined. X3 = O=C(CCCCCOP(=O)(O)OC1CCC(c2ccccc2)(c2ccccc2)CC1)*; X4 = O=C(CCC(=O)*)NS(=O)(=O)c1ccc2ccccc2c1; X2 = O=C(CCCCCOP(=O)(O)Oc1ccc2ccccc2c1)*; X1 = O=C(CCCCCOP(=O)(O)OCCCCCc1ccccc1)*

Each molecule was assayed against Albumin (Oryctolagus cuniculus) (UniProt P49065) (assay: Compound was measured for its retention time in rabbit serum albumin;where k`=tt-t0/t0; tt=retention time of compound and t0=retention time of DMSO).
Chain of Albumin (Oryctolagus cuniculus) (P49065 whole entry, looked up): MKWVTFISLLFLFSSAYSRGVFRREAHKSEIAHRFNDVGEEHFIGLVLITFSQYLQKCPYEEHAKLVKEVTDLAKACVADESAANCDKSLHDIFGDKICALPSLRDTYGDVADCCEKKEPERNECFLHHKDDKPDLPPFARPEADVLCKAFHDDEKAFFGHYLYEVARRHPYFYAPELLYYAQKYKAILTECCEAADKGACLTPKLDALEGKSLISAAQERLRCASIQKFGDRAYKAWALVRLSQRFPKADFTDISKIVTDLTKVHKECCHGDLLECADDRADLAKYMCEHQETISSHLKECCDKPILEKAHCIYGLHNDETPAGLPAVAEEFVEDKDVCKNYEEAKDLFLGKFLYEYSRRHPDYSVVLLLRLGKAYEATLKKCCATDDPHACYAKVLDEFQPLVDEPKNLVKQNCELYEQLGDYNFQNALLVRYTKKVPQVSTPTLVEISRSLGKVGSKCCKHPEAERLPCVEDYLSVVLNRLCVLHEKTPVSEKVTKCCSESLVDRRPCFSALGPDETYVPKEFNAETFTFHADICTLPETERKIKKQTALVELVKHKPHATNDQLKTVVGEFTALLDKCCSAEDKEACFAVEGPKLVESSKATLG

Point of comparison: CC[C@H](C)[C@@H]1NC(=O)[C@H](CCCN=C(N)N)NC(=O)[C@@H]2CCCN2C(=O)[C@H](CC(N)=O)NC(=O)[C@H](CC(=O)O)NC(=O)[C@@H](NC(=O)[C@H](CC(C)C)NC(=O)[C@H](C)NC(=O)CCCCCOP(=O)(O)OC2CCC(c3ccccc3)(c3ccccc3)CC2)CSSC[C@@H](C(=O)N[C@@H](CCC(N)=O)C(=O)N[C@@H](Cc2ccccc2)C(=O)N[C@H](C(=O)N[C@@H](CCC(=O)O)C(=O)NCC(N)=O)C(C)C)NC(=O)[C@H](Cc2ccc(O)cc2)NC(=O)[C@H](Cc2c[nH]c3ccccc23)NC(=O)[C@H](CCCN=C(N)N)NC(=O)[C@H](CC(=O)O)NC1=O (X3-ALCDNPRIDRWYCQFVEG-NH2; disulfide 3-13), “k'/k'+1” value 0.97. Against it:
- CC[C@H](C)[C@@H]1NC(=O)[C@H](CCCN=C(N)N)NC(=O)[C@@H]2CCCN2C(=O)[C@H](CC(N)=O)NC(=O)[C@H](CC(=O)O)NC(=O)[C@@H](NC(=O)[C@H](CC(C)C)NC(=O)[C@H](C)NC(=O)CCCCCOP(=O)(O)OCCCCCc2ccccc2)CSSC[C@@H](C(=O)N[C@@H](CCC(N)=O)C(=O)N[C@@H](Cc2ccccc2)C(=O)N[C@H](C(=O)N[C@@H](CCC(=O)O)C(=O)NCC(N)=O)C(C)C)NC(=O)[C@H](Cc2ccc(O)cc2)NC(=O)[C@H](Cc2c[nH]c3ccccc23)NC(=O)[C@H](CCCN=C(N)N)NC(=O)[C@H](CC(=O)O)NC1=O (X1-ALCDNPRIDRWYCQFVEG-NH2; disulfide 3-13) — higher, 0.98
- CC[C@H](C)[C@@H]1NC(=O)[C@H](CCCN=C(N)N)NC(=O)[C@@H]2CCCN2C(=O)[C@H](CC(N)=O)NC(=O)[C@H](CC(=O)O)NC(=O)[C@@H](NC(=O)[C@H](CC(C)C)NC(=O)[C@H](C)NC(=O)CCC(=O)NS(=O)(=O)c2ccc3ccccc3c2)CSSC[C@@H](C(=O)N[C@@H](CCC(N)=O)C(=O)N[C@@H](Cc2ccccc2)C(=O)N[C@H](C(=O)N[C@@H](CCC(=O)O)C(=O)NCC(N)=O)C(C)C)NC(=O)[C@H](Cc2ccc(O)cc2)NC(=O)[C@H](Cc2c[nH]c3ccccc23)NC(=O)[C@H](CCCN=C(N)N)NC(=O)[C@H](CC(=O)O)NC1=O (X4-ALCDNPRIDRWYCQFVEG-NH2; disulfide 3-13) — higher, 0.98
- CC[C@H](C)[C@@H]1NC(=O)[C@H](CCCN=C(N)N)NC(=O)[C@@H]2CCCN2C(=O)[C@H](CC(N)=O)NC(=O)[C@H](CC(=O)O)NC(=O)[C@@H](NC(=O)[C@H](CC(C)C)NC(=O)[C@H](C)NC(=O)CCCCCOP(=O)(O)Oc2ccc3ccccc3c2)CSSC[C@@H](C(=O)N[C@@H](CCC(N)=O)C(=O)N[C@@H](Cc2ccccc2)C(=O)N[C@H](C(=O)N[C@@H](CCC(=O)O)C(=O)NCC(N)=O)C(C)C)NC(=O)[C@H](Cc2ccc(O)cc2)NC(=O)[C@H](Cc2c[nH]c3ccccc23)NC(=O)[C@H](CCCN=C(N)N)NC(=O)[C@H](CC(=O)O)NC1=O (X2-ALCDNPRIDRWYCQFVEG-NH2; disulfide 3-13) — the same, 0.97
- CC[C@H](C)[C@@H]1NC(=O)[C@H](CCCN=C(N)N)NC(=O)[C@@H]2CCCN2C(=O)[C@H](CC(N)=O)NC(=O)[C@H](CC(=O)O)NC(=O)[C@@H](NC(=O)[C@H](CC(C)C)NC(=O)[C@H](C)NC(C)=O)CSSC[C@@H](C(=O)N[C@@H](CCC(N)=O)C(=O)N[C@@H](Cc2ccccc2)C(=O)N[C@H](C(=O)N[C@@H](CCC(=O)O)C(=O)NCC(N)=O)C(C)C)NC(=O)[C@H](Cc2ccc(O)cc2)NC(=O)[C@H](Cc2c[nH]c3ccccc23)NC(=O)[C@H](CCCN=C(N)N)NC(=O)[C@H](CC(=O)O)NC1=O (Ac-ALCDNPRIDRWYCQFVEG-NH2; disulfide 3-13) — lower, 0.39
